Reference: ChEMBL document CHEMBL2150992, “Synthesis of quinoline derivatives for fluorescent imaging certain bacteria” (Bioorg Med Chem Lett, 2012)
The source made the active and inactive calls. No cut-off for these calls is given here.

Columns and labels:
Format in all cases: functional, organism-based
Staphylococcus aureus [1] = assay: Binding affinity to Staphylococcus aureus at 0.0781 mM after 10 mins by fluorescence microscopy
Escherichia coli [2] = assay: Binding affinity to Escherichia coli at 0.0781 mM after 10 mins by fluorescence microscopy
Bacillus subtilis [3] = assay: Binding affinity to Bacillus subtilis at 0.0781 mM after 10 mins by fluorescence microscopy
Escherichia coli [4] = assay: Binding affinity to Escherichia coli at 0.0781 mM after 1 day by fluorescence microscopy
Staphylococcus aureus [5] = assay: Binding affinity to Staphylococcus aureus at 0.0781 mM after 1 day by fluorescence microscopy
Bacillus subtilis [6] = assay: Binding affinity to Bacillus subtilis at 0.0781 mM after 1 day by fluorescence microscopy

SMILES | Activity (Bacillus subtilis [3]) | Activity (Bacillus subtilis [6]) | Activity (Staphylococcus aureus [1]) | Activity (Escherichia coli [2]) | Activity (Escherichia coli [4]) | Activity (Staphylococcus aureus [5])
O=C1CCCN1c1cc(-c2cc3ccccc3c3ccccc23)nc2ccccc12 | Active | Active | Active | Active | Active | Active
c1ccc2c(c1)N[C@H](c1cc3ccccc3c3ccccc13)C1CCCOC21 (stereo not given in full) | inactive |  | Active | inactive |  | 
COc1ccc2c(c1)[C@@H](N1CCCC1=O)C[C@@H](c1cc3ccccc3c3ccccc13)N2 (relative stereo) | Active |  | Active | Active |  | 
O=C1CCCN1[C@H]1C[C@@H](c2cc3ccccc3c3ccccc23)Nc2ccc(Br)cc21 (relative stereo) | inactive |  | inactive | Active |  | 
O=C1CCCN1c1cc(-c2cc3ccccc3c3ccccc23)nc2ccc(Cl)cc12 | Active | Active | Active | Active | Active | Active
N#Cc1ccc2c(c1)[C@@H](N1CCCC1=O)C[C@@H](c1cc3ccccc3c3ccccc13)N2 (mixture of isomers) | Active |  | Active | inactive |  | 
O=C1CCCN1[C@H]1C[C@@H](c2cc3ccccc3c3ccccc23)Nc2ccccc21 (relative stereo) | Active |  | Active | inactive |  | 

Continued, in another order:

Activity (Bacillus subtilis [3]) | Activity (Bacillus subtilis [6]) | SMILES | Activity (Staphylococcus aureus [1]) | Activity (Escherichia coli [2]) | Activity (Escherichia coli [4]) | Activity (Staphylococcus aureus [5])
inactive |  | c1ccc2c(c1)N[C@@H](c1cc3ccccc3c3ccccc13)C1CCCOC21 (stereo not given in full) | Active | inactive |  | 
Active | Active | O=C1CCCN1c1cc(-c2cc3ccccc3c3ccccc23)nc2ccc(Br)cc12 | Active | inactive | Active | Active
Active | Active | COc1ccc2nc(-c3cc4ccccc4c4ccccc34)cc(N3CCCC3=O)c2c1 | inactive | Active | Active | Active
inactive |  | CCCCc1ccc2c(c1)[C@@H](N1CCCC1=O)C[C@@H](c1cc3ccccc3c3ccccc13)N2 (relative stereo) | Active | inactive |  | 
Active | Active | N#Cc1ccc2nc(-c3cc4ccccc4c4ccccc34)cc(N3CCCC3=O)c2c1 | Active | Active | Active | Active
Active |  | O=C1CCCN1[C@H]1C[C@@H](c2cc3ccccc3c3ccccc23)Nc2ccc(Cl)cc21 (relative stereo) | inactive | inactive |  | 
Active | Active | CCCCc1ccc2nc(-c3cc4ccccc4c4ccccc34)cc(N3CCCC3=O)c2c1 | Active | inactive | Active | Active
